Measured values as given in patent publication US20090286869A1, “Flavanols and B-Type Procyanidins and Inflammation” (Mars, Inc., priority 2005, published 2009).
Entries after “also recorded” stand apart in the source; their conditions may differ.

Tests used:
COX-2 mRNA [1] = experiment: RT-PCR of COX-2 mRNA in LPS and fMLP-treated U937-derived macrophages; format: cell-based, human; details: 10 μM each; for inhibition of the mRNA expression of COX-2: 2 h pretreatment before LPS 1 μg/ml priming or fMLP 10 μM stimulation, FIGS. 4 A-C; for order of suppression potency of the COX-2 mRNA expression induced by LPS and fMLP: FIG. 4C
Procedure: The human monocyte line U937 was obtained from the cell bank in Shanghai Institute of Biological Sciences, Chinese Academy of Sciences. Monocytic cells of 3-4 passages were grown to confluence in RPMI 1640 (GIBCO-BRL, Glasgow, Scotland) containing 10% fetal bovine serum at 37° C. in a 5% CO2 humidified incubator during all experimental procedures. Macrophages were pretreated with procyanidins B1 dimer, B2 dimer, A1 dimer, and flavanols (−)-catechin and (+)-epicatechin (each 10) for 2 h before LPS (1 μg·ml^−1) priming or fMLP (10 μM) stimulation for 2 h. The normal macrophages without LPS or fMLP treatment were considered as controls. They were then differentiated to macrophages in the medium containing 100 nM PMA and allowed to adhere for 48 h, after which they were fed with PMA-free medium and cultured for 24 h prior to use. Cells from different groups were collected and total RNA was prepared with TRI-REAGENT-LS extraction kit The expression of RNAs was determined by RT-PCR. Complementary DNA was created from RNA using TrueScript MMLV reverse transcriptase and oligo d (T) 18 primers. 5 μg RNA was included in each reaction.
The data are presented as means±SD and compared with ANOVA and least significant difference test using SPSS statistical program. The level of the statistical significance was set at P<0.05.

COX-2 protein expression = experiment: Western blot of LPS-induced COX-2 protein expression in THP-1 cells; format: cell-based, human; details: 50 μM, 30 min pretreatment with B2 followed by 4 hour LPS treatment
Procedure: (§1) Human monocytic THP-1 cells from acute monocytic leukemia (American Type Culture Collection, Manassas, Va.) in RPMI 1640 medium (Life Technologies, Rockville, Md.), with 4.5 g/L glucose, 10 nM HEPES, 1 mM sodium pyruvate, and 50 μM 2-ME supplemented with 10% FBS, were cultured under a humidified 5% CO2 atmosphere at 37° C. For differentiation, THP-1 cells were plated at 1×10^6 cells/ml in the medium containing 100 nM PMA and allowed to adhere for 48 h, after which they were fed with PMA-free medium and cultured for 24 h prior to use. LPS was used at concentration of 1 μg/ml in the medium. sf9 cells were cultured in monolayer at 28° C. in Grace's supplemented medium with 10% heat-inactivated fetal bovine serum.
5×10^6 cells were resuspended in modified RIPA lysis buffer (Tris-HCl 50 mM, pH 7.4 NaCl 150 mM, EDTA 1 mM, Na-deoxycholate 0.25%, NP-40 1%, PMSF 1 mM, Na3VO4 1 mM, NaF 1 mM, Aprotinin 10 μg/ml, leupeptin 5 μg/ml, pepstatin 5 μg/ml), and lysed cells on ice for 45 min. The lysate was centrifuged at 14,000×g for 15 min to sediment the particulate materials. The protein concentration of the supernatant was measured by the method of Lowry (Lowry et al., J. Biol. Chem. 193:265-267, 1951). Samples were electrophoresed in SDS/PAGE gels and separated proteins were transferred onto a PVDF membrane. […]

COX-2 mRNA [2] = experiment: Real-time quantitative RT-PCR of COX-2 mRNA in LPS-treated differentiated THP-1 cells; format: cell-based, human; details: differentiated THP-1 cells exposed to dimer B2 and LPS 1 μg/ml for 4 h; FIG. 1
Procedure: as §1
Total RNA was extracted from macropahges with TRIzol reagent (Invitrogen Corporation, Carlsbad, Calif.). Real-time quantitative RT-PCR was performed using the Opticon 2 (MJ Research Inc., Waltham, Mass.). Sequence specific PCR primers for COX-2 [accession no. NM_000963; forward primer: 5′-[…]-3′ [SEQ ID NO: 1]; reverse primer: 5′-[…]-3′ [SEQ ID NO: 2]] and GAPDH [accession no. NM_002046; forward primer: 5′-[…]-3′ [SEQ ID NO: 3]; reverse primer: 5′-[…]-3′ [SEQ ID NO: 4]] were designed using the Primer Premier software version 5.00. Standard curves were run on the same plate and the relative standard curve method was used to calculate the relative gene expression. […]

[3] = target: T1, recombinant human COX-2 enzyme (Homo sapiens, UniProt P35354); experiment: Determination of COX-2 enzyme activity (PGE2 RIA, baculovirus-expressed enzyme in sf9 cells); format: biochemical; details: baculovirus-expressed human recombinant COX-2; 10 μmol/L arachidonic acid; FIG. 3
T1 construct: made in house; host or cells: sf9 insect cells infected with hCOX-2 recombinant baculovirus
T1 sequence (P35354 18-604): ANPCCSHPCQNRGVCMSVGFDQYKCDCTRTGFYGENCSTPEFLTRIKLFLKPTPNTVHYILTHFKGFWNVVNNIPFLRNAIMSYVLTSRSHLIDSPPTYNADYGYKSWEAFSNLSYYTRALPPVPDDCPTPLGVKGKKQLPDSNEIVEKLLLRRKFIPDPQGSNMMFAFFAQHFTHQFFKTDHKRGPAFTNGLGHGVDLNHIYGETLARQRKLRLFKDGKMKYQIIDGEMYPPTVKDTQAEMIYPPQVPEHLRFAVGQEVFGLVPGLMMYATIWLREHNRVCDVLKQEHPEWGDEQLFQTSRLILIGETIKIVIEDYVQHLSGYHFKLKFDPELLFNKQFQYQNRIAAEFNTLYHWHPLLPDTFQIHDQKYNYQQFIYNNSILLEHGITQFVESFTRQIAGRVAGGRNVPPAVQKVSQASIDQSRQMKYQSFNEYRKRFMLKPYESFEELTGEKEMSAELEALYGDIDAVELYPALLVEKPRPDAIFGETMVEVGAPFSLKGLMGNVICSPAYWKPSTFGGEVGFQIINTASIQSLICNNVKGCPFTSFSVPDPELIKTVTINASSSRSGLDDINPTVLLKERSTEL
Procedure: The effect of procyanidin dimer B2 and NS398, a selective COX-2 inhibitor (positive control), on the activity of COX-2 was measured using baculovirus-expressed recombinant human COX-2 enzyme as previously described (Zhang et al., Acta. Pharmacol. Sin. 25(8):1000-1006, 2004). Briefly, 24 h after infecting sf9 cells with hCOX-2 recombinant baculovirus, the cells were collected and washed in HHBS. The assays were performed as follows. One milliliter of Hank's solution containing 1×10^5 COX-2 expressing cells plus 9×10^5 uninfected sf9 cells was dispensed per well of 24-well polypropylene plates. B2, NS398, or DMSO vehicle (10 μL) was added to the appropriate well containing the cell suspension. Following a 15-min drug or DMSO preincubation at 37° C., the cells were challenged with 10 μmol/L arachidonic acid
(Sigma) in ethanol and incubated for 10 min. Reactions were terminated by the addition of 100 μL of 1 mol/L HCl, neutralized with 100 μL of 1 mol/L NaOH. The cells were pelleted for 10 min at 300×g and the levels of PGE2 in the supernatant were determined by a PGE2-specific RIA (Beijing East Asia Institute of Immunology). The concentration of PGE2 was then determined by interpolation from a standard curve and inhibition calculated by comparison of the PGE2 production by drug-treated cells (B2 and NS398) with that of DMSO-treated cells.

Compound | inhibition of the mRNA expression of COX-2 (COX-2 mRNA [1]) | order of suppression potency of the COX-2 mRNA expression induced by LPS and fMLP (COX-2 mRNA [1]) | LPS-induced COX-2 protein expression (COX-2 protein expression; FIG. 2) | LPS-induced COX-2 protein expression (COX-2 protein expression; FIG. 2, listed as 132) | levels of mRNA for COX-2 (COX-2 transcription) (COX-2 mRNA [2]) | effect on PGE2 synthesis (COX-2 enzyme activity) [3]
Oc1cc(O)c2c(c1)O[C@H](c1ccc(O)c(O)c1)[C@H](O)[C@H]2c1c(O)cc(O)c2c1O[C@H](c1ccc(O)c(O)c1)[C@@H](O)C2 [B1, (−)-epicatechin-(4β-8)-(+)-catechin] | significant inhibition | (−)-catechin, (+)-epicatechin >B1, B2>A1 | – | – | – | –
Oc1cc(O)c2c(c1)O[C@H](c1ccc(O)c(O)c1)[C@H](O)[C@H]2c1c(O)cc(O)c2c1O[C@H](c1ccc(O)c(O)c1)[C@H](O)C2 [B2, (−)-epicatechin-(4β-8)-(−)-epicatechin] | significant inhibition | (−)-catechin, (+)-epicatechin >B1, B2>A1 | inhibited | inhibitory effect | inhibitory effect; also recorded: reduced in a concentration-dependent manner | not inhibited; also recorded: no inhibitory effect
Oc1cc(O)c2c(c1)O[C@@H](c1ccc(O)c(O)c1)[C@@H](O)C2 [(+)-epicatechin] | significant inhibition | (−)-catechin, (+)-epicatechin >B1, B2>A1 | – | – | – | –
Oc1cc(O)c2c(c1)OC1(c3ccc(O)c(O)c3)Oc3cc(O)c4c(c3C2C1O)OC(c1ccc(O)c(O)c1)C(O)C4 (centres unmarked) [A1, reference compound] | significant inhibition | (−)-catechin, (+)-epicatechin >B1, B2>A1 | – | – | – | –
(−)-catechin | significant inhibition | (−)-catechin, (+)-epicatechin >B1, B2>A1 | – | – | – | –
